Data taken from patent US8802128B2, “Steroid-containing sustained release intraocular implants and related methods” (Allergan, Inc., priority 2006, dated 2014).

How the values were obtained:
[1] = Relative water solubility of the steroids; type: physicochemical
[2] = in vivo; cited from earlier work

SMILES	water solubility relative to beclomethasone dipropionate (times more soluble) [1]	eyes with increase in brown pigment in the iris [2]
CC1(C)O[C@@H]2C[C@H]3[C@@H]4CCC5=CC(=O)C=C[C@]5(C)[C@@]4(F)[C@@H](O)C[C@]3(C)[C@]2(C(=O)CO)O1 [triamcinolone acetonide]	about 150 times	–
CC(C)OC(=O)CCC/C=C\C[C@@H]1[C@@H](CC[C@@H](O)CCc2ccccc2)[C@H](O)C[C@@H]1O [latanoprost]	–	5-15 % of human eyes
